{"source": "the NIST ThermoML archive (doi:10.1016/j.fluid.2013.09.029)", "settings": "Liquid; for mass density: 298.15 K, 101.33 kPa, Vibrating tube method; for vapor or sublimation pressure: Closed cell (Static) method", "note": "Numbers after ± are expanded uncertainties."}
{"compound": "CC(C)(C)O", "note": "[2-methylpropan-2-ol]", "values": [{"measurement": "mass density", "result": "781.04 ± 0.18", "unit": "kg/m3"}, {"measurement": "vapor or sublimation pressure", "setting": "330.9 K", "result": "34.9 ± 0.4", "unit": "kPa"}, {"measurement": "vapor or sublimation pressure", "setting": "331.1 K", "result": "35.3 ± 0.4", "unit": "kPa"}, {"measurement": "vapor or sublimation pressure", "setting": "340.6 K", "result": "54 ± 0.5", "unit": "kPa"}, {"measurement": "vapor or sublimation pressure", "setting": "350.6 K", "result": "82.6 ± 0.7", "unit": "kPa"}, {"measurement": "vapor or sublimation pressure", "setting": "360.1 K", "result": "121.2 ± 1", "unit": "kPa"}, {"measurement": "vapor or sublimation pressure", "setting": "369.5 K", "result": "171.4 ± 1.3", "unit": "kPa"}, {"measurement": "vapor or sublimation pressure", "setting": "378.5 K", "result": "232.1 ± 1.6", "unit": "kPa"}, {"measurement": "vapor or sublimation pressure", "setting": "387.7 K", "result": "310.6 ± 2.1", "unit": "kPa"}, {"measurement": "vapor or sublimation pressure", "setting": "396.7 K", "result": "406.4 ± 2.4", "unit": "kPa"}]}
{"compound": "CCC(C)O", "note": "(configuration not stated) [butan-2-ol]", "values": [{"measurement": "mass density", "result": "802.47 ± 0.16", "unit": "kg/m3"}, {"measurement": "vapor or sublimation pressure", "setting": "332.9 K", "result": "18 ± 0.2", "unit": "kPa"}, {"measurement": "vapor or sublimation pressure", "setting": "342.9 K", "result": "29.2 ± 0.3", "unit": "kPa"}, {"measurement": "vapor or sublimation pressure", "setting": "352.5 K", "result": "45 ± 0.4", "unit": "kPa"}, {"measurement": "vapor or sublimation pressure", "setting": "361.3 K", "result": "65 ± 0.6", "unit": "kPa"}, {"measurement": "vapor or sublimation pressure", "setting": "371.1 K", "result": "96 ± 0.8", "unit": "kPa"}, {"measurement": "vapor or sublimation pressure", "setting": "381.1 K", "result": "137.6 ± 1", "unit": "kPa"}, {"measurement": "vapor or sublimation pressure", "setting": "391.9 K", "result": "197.5 ± 1.4", "unit": "kPa"}, {"measurement": "vapor or sublimation pressure", "setting": "401.4 K", "result": "266.1 ± 1.8", "unit": "kPa"}, {"measurement": "vapor or sublimation pressure", "setting": "412 K", "result": "361.8 ± 2.2", "unit": "kPa"}, {"measurement": "vapor or sublimation pressure", "setting": "421.6 K", "result": "471.4 ± 2.6", "unit": "kPa"}]}
{"compound": "CCCCCO", "note": "[pentan-1-ol]", "values": [{"measurement": "mass density", "result": "811.04 ± 0.15", "unit": "kg/m3"}, {"measurement": "vapor or sublimation pressure", "setting": "333.1 K", "result": "3.1 ± 0.1", "unit": "kPa"}, {"measurement": "vapor or sublimation pressure", "setting": "344.8 K", "result": "6 ± 0.1", "unit": "kPa"}, {"measurement": "vapor or sublimation pressure", "setting": "354.4 K", "result": "10 ± 0.1", "unit": "kPa"}, {"measurement": "vapor or sublimation pressure", "setting": "362.4 K", "result": "14.8 ± 0.2", "unit": "kPa"}, {"measurement": "vapor or sublimation pressure", "setting": "371.2 K", "result": "21.9 ± 0.2", "unit": "kPa"}, {"measurement": "vapor or sublimation pressure", "setting": "381.6 K", "result": "34.1 ± 0.3", "unit": "kPa"}, {"measurement": "vapor or sublimation pressure", "setting": "391.5 K", "result": "50.2 ± 0.4", "unit": "kPa"}, {"measurement": "vapor or sublimation pressure", "setting": "401.7 K", "result": "73.1 ± 0.6", "unit": "kPa"}, {"measurement": "vapor or sublimation pressure", "setting": "411.4 K", "result": "102.1 ± 0.7", "unit": "kPa"}, {"measurement": "vapor or sublimation pressure", "setting": "422.4 K", "result": "145.2 ± 0.9", "unit": "kPa"}]}
